Experimental findings from patent US20220041623A1, “INDOLE MACROCYCLIC DERIVATIVE, PREPARATION METHOD THEREOF AND APPLICATION THEREOF IN MEDICINE” (JIANGSU HENGRUI MEDICINE CO., LTD., priority 2018, published 2022) are described below.

The target in this experiment is T1, MCL-1 protein (Homo sapiens, UniProt Q07820).
T1 construct: Bim peptide bought from R&D, 3526/1 NA
The experiment is described as follows: MCL-1 protein binding experiment (HTRF, MCL-1/Bim). The conditions noted are these: for inhibition at up to 10 µM: HTRF MCL-1/Bim binding, initial concentration 10 μM, read-out: Maximum inhibition rate (%); for Ki: HTRF, 0.1 nM His-MCL-1, 2.5 nM bio-Bim, room temperature. How it is done:
The following method was used to determine the binding ability of the compound of the present invention to MCL-1 protein. The experimental method is briefly described as follows.
MCL-1 inhibitors can bind to MCL-1 protein to prevent the binding of MCL-1 to Bim protein. The experiment evaluates the binding ability of MCL-1 inhibitor to MCL-1 protein by detecting the binding of MCL-1 to Bim protein through HTRF method, and the activity of the compound was evaluated according to the Ki value.
The mixture was incubated at room temperature for 2 hours, followed by the detection of fluorescence signals at 620 nm and 665 nm by PHERAstar. The data was processed by GraphPad software.
On the technique in general: In TR-FRET formats the signal depends on donor and acceptor labels being close together.

T1 sequence (Q07820 171-327): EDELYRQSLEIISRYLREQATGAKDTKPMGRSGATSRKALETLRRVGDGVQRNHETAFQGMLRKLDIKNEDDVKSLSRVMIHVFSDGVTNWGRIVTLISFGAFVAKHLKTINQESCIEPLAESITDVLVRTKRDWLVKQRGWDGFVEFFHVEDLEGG

Broadly, the inhibition is the drop in the measured response relative to a control, in per cent. For orientation: Ki means a dissociation constant, usually derived from enzyme kinetics or from competition with a known ligand. As to `Cc1c(C(=O)O)n2c3ccc(Cl)c(c13)-c1c(nn(C)c1C)CSCc1cc(n(C)n1)CSc1cc3c(c(c1)OCCC2)CCCC3` [Example 7, 17-Chloro-5,13,14,22-tetramethyl-28-oxa-2,9-dithia-5,6,12,13,24-pentaazaheptacyclo[27.7.1.1^4,7.0^11,15.0^16,21.0^20,24.0^30,35]octatriaconta-1(37),4(38),6,11,14,16,18,20,22,29,35-undecaene-23-carboxylic acid], the inhibition at up to 10 µM worked out at 99% and the Ki was determined as 0.71 nM.

Consider `Cc1c(C(=O)O)n2c3ccc(Cl)c(c13)-c1c(nn(C)c1C)CSCc1cc(n(C)n1)CCc1cc3c(c(c1)OCCC2)CCCC3` [Example 8, 17-Chloro-5,13,14,22-tetramethyl-28-oxa-9-thia-5,6,12,13,24-pentaazaheptacyclo[27.7.1.1^4,7.0^11,15.0^16,21.0^20,24.0^30,35]octatriaconta-1(37),4(38),6,11,14,16,18,20,22,29,35-undecaene-23-carboxylic acid], for which the inhibition at up to 10 µM stood at 100% and the Ki turned out to be 0.55 nM.

`Cc1c(C(=O)O)n2c3ccc(Cl)c(c13)-c1c(nn(C)c1C)CN(C)Cc1cc(n(C)n1)CSc1cc3c(c(c1)OCCC2)CCCC3` [Example 9, 17-Chloro-5,9,13,14,22-pentamethyl-28-oxa-2-thia-5,6,9,12,13,24-hexaazaheptacyclo[27.7.1.1^4,7.0^11,15.0^16,21.0^20,24.0^30,35]octatriaconta-1(37),4(38),6,11,14,16,18,20,22,29,35-undecaene-23-carboxylic acid]: the inhibition at up to 10 µM came to 100% and the Ki was determined as 1.5 nM.

Regarding `Cc1c(C(=O)O)n2c3ccc(Cl)c(c13)-c1c(nn3c1CCCC3)CSCc1cc(n(C)n1)CSc1cc(c3ccccc3c1)OCCC2` [Example 10, 21-Chloro-5,26-dimethyl-32-oxa-2,9-dithia-5,6,12,13,28-pentaazaoctacyclo[31.7.1.1^4,7.0^11,19.0^13,18.0^20,25.0^24,28.0^34,39]dotetraconta-1(41),4(42),6,11,18,20,22,24,26,33,35,37,39-tridecaene-27-carboxylic acid], the inhibition at up to 10 µM is 101% and the Ki turned out to be 7.9 nM.

Consider `Cc1c(C(=O)O)n2c3ccc(Cl)c(c13)-c1c(nn3c1CCCC3)CN(C)Cc1cc(n(C)n1)CSc1cc(c3ccccc3c1)OCCC2` [Example 11, 21-Chloro-5,9,26-trimethyl-32-oxa-2-thia-5,6,9,12,13,28-hexaazaoctacyclo[31.7.1.1^4,7.0^11,19.0^13,18.0^20,25.0^24,28.0^34,39]dotetraconta-1(41),4(42),6,11,18,20,22,24,26,33,35,37,39-tridecaene-27-carboxylic acid], for which the inhibition at up to 10 µM came out at 100% and the Ki came out at 3 nM.
